Experimental data reported in patent US20240399360A1, “DEVICES AND METHODS FOR CREATING TRANSCELLULAR PORES” (Georgia Tech Research Corporation, priority 2023, published 2024).
Entries after “also recorded” stand apart in the source; their conditions may differ.

Columns and labels:
Format in all cases: cell-based, human
phSC cells [1] = test: Cell stiffness measurement by atomic force microscopy (AFM)
Procedure: Cell stiffness measurement: SC cells were seeded on coverslips and grown to confluence. An MFD-3D AFM (Asylum Research, Santa Barbara, CA, USA) was used to make stiffness measurements using silicon nitride cantilevers with an attached borosilicate sphere (diameter=10 μm; nominal spring constant=0.1 N/m; Novascan Technologies, Inc., Ames, IA, USA). […] The indentation depth was limited to 400 nm to avoid substrate effects and the tip velocity was adjusted to 800 nm/s to avoid viscous effects^37. 5 measurements/cell were conducted, and at least 5 cells were measured/cell strain. Data from AFM measurements were fitted to the Hertz model to calculate the Young's Modulus of the cells.

phSC cells [2] = test: Particle-induced transcellular pore formation, fluorescent pore-label assay, cells seeded above microparticles
Procedure: Substrate preparation and cell culture for transcellular pore formation using microparticles: Round cover glasses (12 mm in diameter) were employed for SEM imaging, while 16-well chambered cover glasses (16 wells per cover glass; Invitrogen C37000) were utilized for other experiments. Glass substrates underwent plasma treatment (Harrick Plasma, PDC-32G) for 2 minutes at high RF power and were immediately incubated at 37° C. with 0.5 mg/mL biotinylated gelatin for 24 hours. After three washes with PBS, the cover glasses were incubated with microbial transglutaminase (0.001 unit/mL in 20 mM Tris-HCl and 150 mM NaCl, pH 8; Sigma-Aldrich SAE0159) at 37° C. for 24 hours to crosslink the gelatin coating and enhance phSC cell attachment on the substrate. Following three additional washes with PBS, the cover glasses were UV sterilized in a biosafety cabinet for 1 hour. Carboxyl ferromagnetic particles (4.0-4.9 μm, Spherotech, Inc. CFM-40-10) were vortexed and added to the substrate. The particles were allowed to randomly sink onto the substrate to achieve an approximate density of 1 particle per 1000 μm^2. Non-adherent particles were removed by washing three times with PBS, followed by seeding phSC cells (passage 4-6; 7.5 k cells/cm^2). The cells were then cultured for 2 to 7 hours in DMEM supplemented with 1% FBS and 1×PSG at 37° C. with 5% CO2. The culture time was chosen as the minimum duration necessary for the cells to adopt a spread configuration similar to that observed in situ. Note that this culture time (2 to 7 hours) varied for the tested cell strains. Alternatively, in some experiments, apical-to-basal cell stretching was achieved by adding particles above fully spread cells. High-content screening of transcellular pores: Upon achieving full cell spreading over particles, cells were incubated with the first pore label for 5 minutes, followed by three washes with cell media. Subsequently, cells were either exposed to a magnetic field (as detailed below) or incubated solely with cell media for 10 minutes. Afterward, the cells were incubated with the second pore label (5 μg/mL; Streptavidin, Alexa Fluor 647 Conjugate, Invitrogen S32357) for 5 minutes, all at 37° C. The cells were then immediately washed three times with PBS, fixed with 4% formaldehyde for 15 minutes at room temperature, washed three times with PBS, permeabilized with 0.1% Triton X for 15 minutes, and stained with NucBlue Fixed Cell Ready Probes Reagent (6 drops/mL; Invitrogen R37606) and Alexa Fluor 555 Phalloidin (0.165 μM; Invitrogen R34055) for 1 hour at room temperature. Following these steps, cells were washed three times with PBS, the cover glass was detached from the rest of the 16-well chambered system, mounted on another cover glass using Prolong Gold Antifade Mountant (Invitrogen P10144), and stored in the dark until examination with a Leica DM6 B upright microscope system. Fluorescent and brightfield images were acquired using a 10× objective to generate tile scans for each well. To exclude cells near the well edges, a 4 mm diameter circle was delineated at the center of each image, and the analysis was restricted to the cells within this 4 mm circle. The number of cells, particles beneath cells, and pores were manually counted. Pores incidence rate was quantified as the number of pores associated with particles divided by the number of particles, multiplied by 100. […]

phSC cells [3] = test: Transcellular pore detection with particles placed on top of cells (apical-to-basal deformation); settings: 10 μM, instead of magnetic field, FIGS. 14A-14B
Procedure: Substrate preparation and cell culture for transcellular pore formation using microparticles: Round cover glasses (12 mm in diameter) were employed for SEM imaging, while 16-well chambered cover glasses (16 wells per cover glass; Invitrogen C37000) were utilized for other experiments. Glass substrates underwent plasma treatment (Harrick Plasma, PDC-32G) for 2 minutes at high RF power and were immediately incubated at 37° C. with 0.5 mg/mL biotinylated gelatin for 24 hours. After three washes with PBS, the cover glasses were incubated with microbial transglutaminase (0.001 unit/mL in 20 mM Tris-HCl and 150 mM NaCl, pH 8; Sigma-Aldrich SAE0159) at 37° C. for 24 hours to crosslink the gelatin coating and enhance phSC cell attachment on the substrate. […]
High-content screening of transcellular pores: Upon achieving full cell spreading over particles, cells were incubated with the first pore label for 5 minutes, followed by three washes with cell media. […] The cells were then immediately washed three times with PBS, fixed with 4% formaldehyde for 15 minutes at room temperature, washed three times with PBS, permeabilized with 0.1% Triton X for 15 minutes, and stained with NucBlue Fixed Cell Ready Probes Reagent (6 drops/mL; Invitrogen R37606) and Alexa Fluor 555 Phalloidin (0.165 μM; Invitrogen R34055) for 1 hour at room temperature. […]

phSC cells [4] = test: Cell area after treatment (fluorescent images of actin network and nuclei); settings: Y-27632 treatments; nSC74, nSC75, nSC82, nSC89; 2-way ANOVA; FIGS. 12A-12B
Procedure: Treatment with Y-27632 ROCK inhibitor: Cells were seeded above microparticles in 16-well chambered slides in DMEM supplemented with 10% FBS, 1×PSG and allowed to spread for 3.5 hours at 37° C. with 5% CO2. Subsequently, the cells were incubated with 10 μM Y-27632 (Sigma, Y0503) in DMEM supplemented with 1% FBS, 1×PSG for 30 minutes, followed by the first pore label for 5 minutes. Following incubation, the cells were washed, fixed, stained for nuclei and actin filaments, and imaged as described in the section titled “High-content screening of transcellular pores.”

[5] = primary human SC cells, summary statement without cell strain

| Compound | cell stiffness (phSC cells [1]; SIP treatment, nSC74, FIG. 13A) | cell stiffness (phSC cells [1]; SIP treatment, nSC75 and nSC89, FIG. 13A) | pore formation (phSC cells [2]; SIP treatment, nSC74, FIG. 13B) | pore formation (phSC cells [2]; SIP treatment, nSC75 and nSC89, FIG. 13B) | pore formation (phSC cells [2]; [5]) | transcellular pores at particle locations (phSC cells [3]) | cell area (phSC cells [4]) | cell stiffness (phSC cells [1]; Y-27632 treatment, four normal cell strains nSC74, nSC75, nSC82, nSC89, FIG. 6C) | particle-induced pore formation (phSC cells [2]; Y-27632 treatment, four normal cell strains nSC74, nSC75, nSC82, nSC89, FIG. 6D) |
| --- | --- | --- | --- | --- | --- | --- | --- | --- | --- |
| CCCCCCCCCCCCC/C=C/[C@@H](O)[C@@H](N)COP(=O)(O)O [SIP, sphingosine-1-phosphate] | did not have a significant effect; also recorded: did not affect | increased cell stiffness; also recorded: significant increase | did not have a significant effect; also recorded: did not affect | decreased pore formation; also recorded: decrease | decreased pore formation | – | – | – | – |
| C[C@@H](N)[C@H]1CC[C@H](C(=O)Nc2ccncc2)CC1 [Y-27632] | – | – | – | – | increased pore formation | did not induce transcellular pores; also recorded: failed to induce transcellular pores | did not significantly affect; also recorded: no significant effect | decreased cell stiffness | increased pore formation in a dose-dependent manner |
